Where “and” joins values, the source holds several entries; their conditions need not be identical. Equal entries are not always repeated. Entries after “also recorded” stand apart in the source; their conditions may differ. Marks after values point to notes of the source that are not given here.
Assays:
[1] = system: Haemophilus influenzae nontypeable bacterium strain adhering to Detroit 562 human pharynx carcinoma cells (DT 562); assay: Inhibition of adhesion of 111-In radiolabeled Haemophilus influenzae to DT 562 human pharynx cells; assay type: cell-based; conditions: for Activity in adhesion bioassay (in words): adhesion of H. influenzae to human pharynx cells
Excerpt: To determine the ability of various phosphoinositides to prevent the adhesion of Haemophilus influenzae to human nasopharynx cells, the following procedure was used. Detroit 562 human pharynx carcinoma cells (DT 562) were obtained from the American Culture Type Collection. A Haemophilus influenzae nontypeable bacterium strain, which was isolated from the middle ear of an infected child, was obtained from Dr. Lauren Bakaletz of The Ohio State University in Columbus, Ohio.
The DT 562 cells were seeded into Costar 96 well plates at a density of 20,000 to 25,000 cells per well and were cultured in Dulbeco's modified Eagle Medium, available from Grand Island Biological Company. The cells were supplemented with 10% fetal bovine serum (FBS), available from Hyclone. The plates were incubated in a humidified atmosphere of 95% air and 5% carbon dioxide at 37° C. Plates containing cells were washed three times with 20 μL of Hanks Balanced Saline Solution (HBSS), available from Sigma Chemical Company of St. Louis, Mo., to remove serum proteins before the addition of bacteria in adhesion assays.
Haemophilus influenzae was streaked onto Chocolate agar plates, available from Becto Dickinson Diagnostic Instrument System of Sparks, Maryland, from frozen aliquots of a low passage number. The plates were then incubated at 37° C. in a humidified atmosphere of 95% air and 5% carbon dioxide for 18 hours to obtain logarithmically growing cultures. Bacteria harvested in phosphate buffered solution (PBS) supplemented with 0.05% bovine serum albumin (BSA), available from Miles Inc. of Kankakee, Ill., were centrifuged and resuspended in a volume of PBS/BSA yielding an optical density of 2.4 at a wavelength of 660 nm. ^111-Indium-oxine (^111-In), a high-energy, short-lived tracer was utilized to radiolabel the bacteria. Fifty μCi of ^111-In solution was added to 2.5 mL of the bacterial suspension and incubated for 20 minutes at 37° C. The radiolabeled bacteria were then washed two times with 10 mL HBSS to remove unbound ^111-In and resuspended in 5 mL HBSS supplemented with 30 mM 2-hydroxyethylpiperazine-N′-2-ethane sulfonic acid buffer, available from Life Technologies, a producer of Gibco BRL Products, of Grand Island, N.Y. Twenty-five μL of the ^111-In labeled bacterial suspension was preincubated with 25 μL of the test chemical in a polypropylene 96 well plate, available from Costar, for 15 minutes at 37° C. to allow binding of the test agent to the Haemophilus influenzae bacterium.
To determine the adhesion quantitation, the following procedure was used. Twenty-five μL of the preincubation mixture containing radiolabeled bacteria and the test chemical were pipetted into each well of the assay plate containing DT 562 cells. The assay plate was incubated for about 15 to about 20 minutes at 37° C. to allow adhesion of the bacteria to the cell monolayer. Nonadherent bacteria were removed by washing the plate three times in HBSS. The assay was terminated by the addition of 100 μL of 0.05 N sodium hydroxide to disrupt the cell monolayer and the adhering of the Haemophilus influenzae bacterium. The contents of each well were then placed in Cobra polypropylene tubes and counted on a Cobra Gamma Counter, available from Packard Bell. After background radiation was subtracted from each well, the average count of four replicates (per sample) was calculated. Results are presented in Table 1 as the percent of inhibition of bacterial adhesion, as compared to bacterial attachment, in control wells containing no test chemical and in which the percent of inhibition is zero.

[2] = system: nontypeable Haemophilus influenzae; assay: Neonatal rat model of nasopharyngeal colonisation by nontypeable Haemophilus influenzae; assay type: in vivo; conditions: for H.I. Recovered Log10 (CFU/mL): intranasal, nasal wash 24 hours after administration, 10 rat pups per group
Procedure: The attachment of Haemophilus influenzae to a mammal's nasopharynx area is believed to be the first stage of a bacterial infection which can lead to otitis media and other disorders and diseases caused by Haemophilus influenzae. A neonatal rat model was used to test the in vivo activity of phosphoinositides, and more specifically PI-3,4-PP, against nontypeable Haemophilus influenzae .
In the test, overnight cultures of nontypeable Haemophilus influenzae were prepared, washed twice and diluted with HBSS to obtain a bacterial suspension of less than 100,000 colony forming units (CFU) per mL. Sample solutions of the PI-3,4-PP were prepared by dissolving in HBSS at 2 mg/mL. The sample solution was mixed with an equal volume (0.5 mL) of the diluted bacterial suspension and incubated for one hour at 37° C. A bacterial control was prepared by mixing and incubating 0.5 mL HBSS with an equal volume of the diluted bacterial suspension. A solvent blank was prepared by incubating 1 mL of HBSS under the same conditions.
In the test, the experimental and control mixtures were used to inoculate 24-hour-old or younger rat pups at 10 μL each intranasally. Twenty-four hours after administration, samples of nasopharyngeal fluid were obtained by the slow instillation of 25 μL of HBSS into the left naris and the initial 10 μL discharge from the right naris was collected for plate count. This procedure insured that the fluid had passed through the nasopharynx. The nasal wash was then spread, or diluted and then spread, onto chocolate agar plates. The plates were incubated at 37° C. overnight and counted for the number of CFU's, an indicator of the number of viable bacteria.

[3] = Test Level 0.1 mg/mL, vs control wells without test chemical, average of four replicates

| Molecule | % Inhibition of bacterial adhesion [1, 3] | Activity in adhesion bioassay (in words) [1] | also measured |
| --- | --- | --- | --- |
| 1-D-myo-inositol-1,3,4-triphosphate sodium salt [I-1,3,4-PPP, reference compound] | −1% | inactive |  |
| dipalmitoylphosphatidylinositol-3-phosphate ammonium salt [PI-3-P] | 24% | lower level of activity |  |
| 1-D-myo-inositol-1,2,6-triphosphate sodium salt [I-1,2,6-PPP, reference compound] | 6* % | inactive |  |
| L-a-phosphatidylinositol-4-monophosphate sodium salt [PI-4-P] | 24% | lower level of activity |  |
| O=P([O-])(OCC(O)CO)OC1C(O)C(O)C(O)C(O)C1O.[Li+] [GPI, 1-(a-glycerophosphopoyl)-D-myo-insoitol lithium salt, reference compound] |  | inactive | % Inhibition of bacterial adhesion ([1]; Test Level 0.5 mg/mL): −3% |
| dipalmitoylphosphatidylinositol-3,4-diphosphate ammonium salt [PI-3,4-PP] |  | especially active | % Inhibition of bacterial adhesion ([1]; Test Level 0.006 mg/mL): 31%; % Inhibition of bacterial adhesion ([1]; Test Level 0.013 mg/mL): 33%; % Inhibition of bacterial adhesion ([1]; Test Level 0.025 mg/mL): 58%; % Inhibition of bacterial adhesion ([1]; Test Level 0.050 mg/mL, ammonium salt): 80%; % Inhibition of bacterial adhesion ([1]; Test Level 0.050 mg/mL, listed as PI-3,4-P, ammonium salt): about 80%; % Inhibition of bacterial adhesion ([1]; Test Level 0.1 mg/mL, vs control wells without test chemical, average of four replicates, ammonium salt): 74% and 81%; Lowest concentration at which activity was exhibited ([1]; adhesion inhibition, dose response): 0.006 mg/mL; H.I. Recovered Log10 (CFU/mL) ([2]; Trial 1, inoculum dose 53 CFU/pup, 1 mg/mL PI-3,4-PP): 1.34 ± 0.58 Log10 (CFU/mL); Reduction in the number of bacteria recovered vs untreated group (HI+HBSS) ([2]; Trial 2, 1 mg/mL PI-3,4-PP, inoculum dose 630-720 CFU/pup): 0.6 log; H.I. Recovered Log10 (CFU/mL) ([2]; Trial 2, inoculum dose 630 CFU/pup, 1 mg/mL PI-3,4-PP): 2.54 ± 1.08 Log10 (CFU/mL); Mode of in vivo activity (in words) ([2]; neonatal rats, nasopharynx, ammonium salt): not bactericidal; also recorded: inhibits the attachment of nontypeable Haemophilus influenzae to nasopharyngeal cells of neonatal rats |
| L-a-phosphatidylinositol ammonium salt [PI, reference compound] | −2% | inactive |  |
